Data taken from patent US9205069B2, “Inhibitors of anaphase promoting complex activity” (President and Fellows of Harvard College, priority 2009, dated 2015).

Tests used:
[1] = test system: APC-Cdh1; experiment: in vitro ubiquitination assay with interphase APC activated by recombinant Cdh1; format: biochemical, Xenopus; settings: 200 μM, added into ubiquitination reaction
Description: APC was then immunoprecipitated and tested in an in vitro ubiquitination assay.

[2] = test system: cyclin B1 degradation and Cdc27 phosphorylation; experiment: mitotic arrest in Xenopus extract after MPF addition (Western blot); format: biochemical; settings: 200 μM, interphase extract plus MPF
[3] = test system: APC-Cdc20; experiment: in vitro ubiquitination assay with APC immunopurified from mitotic extract; format: biochemical, Xenopus; settings: 200 μM, added into ubiquitination reaction
Description: APC was immunoprecipitated from mitotic extract and tested in an in vitro ubiquitination assay.

[4] = biological target: T1, human APC (Homo sapiens, UniProt P30260+Q13042+Q9UJX2+Q9UJX3); experiment: 3H-TAME binding to APC in asynchronous HeLa cell lysate
T1 construct: endogenous in cells; host or cells: asynchronous HeLa cells (lysate)
Description: The same experiment was done as described in 3C using asynchronous Hela cell lysate.

[5] = test system: APC-dependent proteolysis; experiment: cyclin B-luciferase degradation in mitotic Xenopus egg extract (luciferase assay); settings: derivatives tested at 200 μM
Method: Samples were collected at 60 minutes and the remaining reporter level was measured by luminescence. Interphase extract was used as a negative control.

[6] = test system: Xenopus APC; experiment: 3H-TAME binding to APC in interphase extract (Cdc27 immunoprecipitation, scintillation counting); settings: 200 nM 3H TAME
Method: Interphase extract was subjected to three rounds of immunoprecipitation with Cdc27 antibody. […] The specific counts associated with the beads were determined by scintillation counting.
(§1) The specific counts associated with the beads were determined by scintillation counting.
as §1
In parallel, the amount of immunoprecipitated Cdc27 was determined by immunoblot.

[7] = test system: interaction between APC and IR peptide; experiment: APC recruitment from interphase extract by IR peptide resin; format: binding, Xenopus; settings: 200 μM
Method: Top panel: Iodoacetyl resin was coupled with cysteine, a 21aa C-terminal peptide of Cdh1 or a 19aa peptide missing the C-terminal IR tail. The resin was incubated with interphase extract and the amount of Cdc27 bound on resin was analyzed.

[8] = test system: proteasomal degradation of ubiquitinated cyclin B1; experiment: degradation of pre-ubiquitinated 35S-cyclin B1 in interphase extract; format: biochemical, Xenopus; settings: TAME 200 μM
Method: At indicated time points, all protein was precipitated and the level of radioactivity in supernatant was measured by scintillation counting. MG262 was used as a positive control.
A purified MPF complex containing 35S-labeled cyclin B1 was ubiquitinated by APC in a reconstituted ubiquitination system, and then added to interphase Xenopus extract in the presence or absence of inhibitors.

## COC(=O)[C@H](CCCNC(=N)N)NC(C)=O [AAME, acetyl-L-arginine methylester]
[1]
  APC-Cdh1 activity, compound added directly to reconstituted assay: did not inhibit APC
[2]
  cyclin B1 and Cdc27 phosphorylation after MPF addition: degraded by 30 min
[3]
  APC ligase activity, compound added directly to reconstituted ubiquitination assay: did not inhibit APC
[4]
  competition with specific 3H-TAME binding to human APC: did not
[5]
  activity of TAME derivatives in luciferase assay: lowest activity
[6]
  competition with specific binding of 3H-TAME to Xenopus APC: did not
[7]
  APC recruitment by IR peptide resin: no effect

## CC(C)C[C@H](NC(=O)[C@H](CC(C)C)NC(=O)[C@H](CC(C)C)NC(=O)OCc1ccccc1)B(O)O [MG262]
[8]
  degradation of pre-ubiquitinated cyclin B1: strongly inhibited
